Our source for the EC50 values is paper PMC7253176, “Characterization of the kinetic cycle of an ABC transporter by single-molecule and cryo-EM analyses” (eLife, 2020).

The target in assay [1] is T1, bovine multidrug resistance protein 1 (bMRP1) (Bos taurus, UniProt Q8HXQ5).
T1 construct: gene ABCC1
Put plainly: biochemical.

In assay [2] the target is T2, bovine multidrug resistance protein 1 (bMRP1) (Bos taurus, UniProt Q8HXQ5, DEL868-879).
T2 construct: gene ABCC1; purified WT bMRP1 with S6 peptide replacing residues 868–879 and A1 peptide after V1530, Cy3/LD655-labeled
T2 sequence (Q8HXQ5 1-867, stated change not applied): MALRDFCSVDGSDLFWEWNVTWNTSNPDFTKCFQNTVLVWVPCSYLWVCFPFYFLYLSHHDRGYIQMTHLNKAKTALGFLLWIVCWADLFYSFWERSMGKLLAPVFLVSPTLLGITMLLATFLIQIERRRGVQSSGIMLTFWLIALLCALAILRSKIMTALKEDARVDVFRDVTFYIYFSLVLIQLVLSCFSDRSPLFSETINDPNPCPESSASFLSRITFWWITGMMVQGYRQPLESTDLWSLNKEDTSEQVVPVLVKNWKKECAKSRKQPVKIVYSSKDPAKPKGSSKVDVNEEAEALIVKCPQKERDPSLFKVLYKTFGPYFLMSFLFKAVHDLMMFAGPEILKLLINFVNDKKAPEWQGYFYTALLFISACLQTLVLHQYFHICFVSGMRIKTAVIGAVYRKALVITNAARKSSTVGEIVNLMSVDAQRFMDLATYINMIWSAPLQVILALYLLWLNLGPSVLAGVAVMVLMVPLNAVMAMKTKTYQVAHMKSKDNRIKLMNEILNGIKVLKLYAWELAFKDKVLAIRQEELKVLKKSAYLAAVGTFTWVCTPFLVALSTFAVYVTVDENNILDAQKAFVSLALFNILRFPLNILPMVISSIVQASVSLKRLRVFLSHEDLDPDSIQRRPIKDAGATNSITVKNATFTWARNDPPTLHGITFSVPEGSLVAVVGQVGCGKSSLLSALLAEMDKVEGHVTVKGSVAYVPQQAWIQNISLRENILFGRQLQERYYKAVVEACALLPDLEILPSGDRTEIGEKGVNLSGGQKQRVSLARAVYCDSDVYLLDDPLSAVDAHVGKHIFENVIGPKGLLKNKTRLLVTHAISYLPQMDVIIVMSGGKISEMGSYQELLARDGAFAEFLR
T2 sequence (Q8HXQ5 880-1530, stated change not applied): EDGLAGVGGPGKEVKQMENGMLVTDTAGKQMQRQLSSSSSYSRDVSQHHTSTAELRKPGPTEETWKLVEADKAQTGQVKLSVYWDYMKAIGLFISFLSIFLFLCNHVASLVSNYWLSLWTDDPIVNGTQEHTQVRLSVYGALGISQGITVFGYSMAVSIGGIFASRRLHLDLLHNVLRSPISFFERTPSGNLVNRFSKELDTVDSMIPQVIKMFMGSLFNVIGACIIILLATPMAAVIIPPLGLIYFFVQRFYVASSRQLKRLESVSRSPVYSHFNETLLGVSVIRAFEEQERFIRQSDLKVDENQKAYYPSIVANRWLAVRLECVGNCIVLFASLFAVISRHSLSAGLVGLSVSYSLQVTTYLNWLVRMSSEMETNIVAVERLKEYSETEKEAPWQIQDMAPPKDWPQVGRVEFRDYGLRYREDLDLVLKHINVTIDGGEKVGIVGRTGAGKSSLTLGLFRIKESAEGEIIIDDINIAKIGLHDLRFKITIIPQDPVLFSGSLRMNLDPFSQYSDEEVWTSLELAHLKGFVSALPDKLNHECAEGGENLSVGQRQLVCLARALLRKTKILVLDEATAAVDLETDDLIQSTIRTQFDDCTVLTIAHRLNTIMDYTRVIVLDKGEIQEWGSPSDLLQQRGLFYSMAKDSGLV
Put plainly: smFRET dose response of IF1 state occupancy (purified protein); also stimulates ATPase activity. It counts as binding.

T1 sequence (Q8HXQ5 whole entry): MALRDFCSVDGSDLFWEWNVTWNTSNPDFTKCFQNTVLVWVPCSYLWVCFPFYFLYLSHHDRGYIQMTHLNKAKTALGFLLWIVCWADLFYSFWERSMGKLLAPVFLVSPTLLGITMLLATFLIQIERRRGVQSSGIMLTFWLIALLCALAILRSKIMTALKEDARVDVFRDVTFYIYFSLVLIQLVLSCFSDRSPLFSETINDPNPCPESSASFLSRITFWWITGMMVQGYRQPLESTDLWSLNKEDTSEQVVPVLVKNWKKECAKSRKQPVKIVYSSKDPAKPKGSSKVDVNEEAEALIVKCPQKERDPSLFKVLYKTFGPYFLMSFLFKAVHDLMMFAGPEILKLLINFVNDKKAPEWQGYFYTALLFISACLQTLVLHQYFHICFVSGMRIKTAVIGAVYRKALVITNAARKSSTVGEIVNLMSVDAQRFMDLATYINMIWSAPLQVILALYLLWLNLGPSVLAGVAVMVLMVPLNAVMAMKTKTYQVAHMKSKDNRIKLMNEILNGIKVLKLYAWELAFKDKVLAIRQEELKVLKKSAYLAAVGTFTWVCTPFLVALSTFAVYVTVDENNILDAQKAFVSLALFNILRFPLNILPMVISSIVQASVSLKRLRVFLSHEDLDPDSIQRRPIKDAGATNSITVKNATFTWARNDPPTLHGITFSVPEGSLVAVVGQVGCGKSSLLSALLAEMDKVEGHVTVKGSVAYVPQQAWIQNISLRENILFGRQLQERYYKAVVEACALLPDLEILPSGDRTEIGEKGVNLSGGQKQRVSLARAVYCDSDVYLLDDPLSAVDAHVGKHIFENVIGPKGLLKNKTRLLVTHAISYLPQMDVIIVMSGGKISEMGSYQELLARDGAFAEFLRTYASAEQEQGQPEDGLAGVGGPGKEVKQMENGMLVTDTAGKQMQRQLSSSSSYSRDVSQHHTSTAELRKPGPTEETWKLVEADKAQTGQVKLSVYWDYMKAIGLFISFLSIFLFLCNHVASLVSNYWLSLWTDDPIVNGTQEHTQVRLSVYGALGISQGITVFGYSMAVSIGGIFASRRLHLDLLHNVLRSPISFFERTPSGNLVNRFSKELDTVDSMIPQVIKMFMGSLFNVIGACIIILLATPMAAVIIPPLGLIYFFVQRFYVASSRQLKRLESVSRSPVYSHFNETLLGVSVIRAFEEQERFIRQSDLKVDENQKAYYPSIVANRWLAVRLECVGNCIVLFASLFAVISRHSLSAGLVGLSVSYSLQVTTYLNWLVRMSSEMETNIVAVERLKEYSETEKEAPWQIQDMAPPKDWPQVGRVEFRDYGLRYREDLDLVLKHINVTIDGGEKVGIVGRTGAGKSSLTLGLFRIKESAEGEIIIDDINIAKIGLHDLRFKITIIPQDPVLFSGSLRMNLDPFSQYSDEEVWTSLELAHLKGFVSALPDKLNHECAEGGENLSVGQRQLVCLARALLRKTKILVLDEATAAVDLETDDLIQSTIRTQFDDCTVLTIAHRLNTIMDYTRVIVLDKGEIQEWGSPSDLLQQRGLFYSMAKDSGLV

The term EC50 denotes the concentration giving half of the maximal effect. In turn, `Nc1ncnc2c1ncn2[C@@H]1O[C@H](COP(=O)(O)OP(=O)(O)OP(=O)(O)O)[C@@H](O)[C@H]1O` [ATP] returned an EC50 in assay [1] of 50 ± 20 µM.
For the compound `CCCCC/C=C\C\C=C/C=C/C=C/[C@@H](SC[C@H](NC(=O)CC[C@H](N)C(=O)O)C(=O)NCC(=O)O)[C@@H](O)CCCC(=O)O` [Leukotriene C4], the EC50 in assay [2] was determined as 0.32 ± 0.17 µM.
